Measured values from article PMC11780470 (ACS Omega, 2025).

Target: Indole amine 2,3-dioxygenase 1 (IDO1) (Homo sapiens, UniProt P14902)
Assay: IDO1 enzyme
Assay type: biochemical

Indole amine 2,3-dioxygenase 1 (IDO1), sequence (P14902 whole entry): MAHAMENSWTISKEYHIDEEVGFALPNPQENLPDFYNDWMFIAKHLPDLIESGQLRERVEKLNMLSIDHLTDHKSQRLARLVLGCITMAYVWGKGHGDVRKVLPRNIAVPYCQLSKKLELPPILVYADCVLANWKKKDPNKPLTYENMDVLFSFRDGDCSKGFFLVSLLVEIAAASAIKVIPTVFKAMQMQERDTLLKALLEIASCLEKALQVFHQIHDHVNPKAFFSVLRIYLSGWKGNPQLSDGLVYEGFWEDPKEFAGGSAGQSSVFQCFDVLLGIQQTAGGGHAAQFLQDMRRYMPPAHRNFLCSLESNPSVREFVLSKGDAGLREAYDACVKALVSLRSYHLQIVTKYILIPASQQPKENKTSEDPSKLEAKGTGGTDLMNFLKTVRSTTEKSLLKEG

## O=C1c2ccccc2-n2c1nc1ccccc1c2=O [TRYP, indolo [2,1-b]quinazoline-6,12-dione]
  IC50: 17.3 µM
